Source: paper PMC5663926, “In vivo near-infrared imaging of ErbB2 expressing breast tumors with dual-axes confocal endomicroscopy using a targeted peptide” (Scientific Reports, 2017)

What was measured:
ErbB2 = experiment: Competition with unlabeled peptide for binding of labeled KSP* to cells; format: cell-based, human; conditions: unlabeled peptide 0, 100, 250, 500, 1000 μM, 30 min at 4 °C; for effect of unlabeled peptide on binding of KSP*-IR800: BT474 cells as per Results text, then 0.5 μM labeled peptide; for effect of unlabeled peptide on mean fluorescence intensity of KSP*-Cy5.5: SKBR3 cells, one-way ANOVA (Fig. 2 legend)
Procedure: We performed competition by adding either unlabeled KSP* or PPS* peptide to block binding of KSP*-IR800 to BT474 cells. […] We also observed good co-localization of binding between KSP*-Cy5.5 (red) and AlexaFluor488-labeled anti-ErbB2 antibody (green) with Pearson’s correlation coefficient ρ = 0.70, Fig. 2P–S.
Specific binding of KSP*-IR800 to SKBR3 cells was validated using competition with unlabeled KSP* peptide. SKBR3 cells were grown to ~70% confluence on coverslips in triplicate. Unlabeled KSP* at concentrations of 0, 100, 250, 500, and 1000 μM was incubated with the cells for 30 min at 4 °C. The cells were washed with PBS 3X, and further incubated with 0.5 μM of KSP*-IR800 for another 30 min at 4 °C. The cells were washed with PBS 3X and fixed with 4% PFA for 10 min. The cells were washed with PBS and then mounted with ProLong Gold reagent containing DAPI (Invitrogen). Confocal fluorescence images were collected and intensities from 6 independent images at each concentration were quantified using custom Matlab (Mathworks) software.

[1] = test system: ErbB2 on BT474 (ErbB2+) and MDA-MB-231 (ErbB2−) human breast cancer cells; experiment: Confocal microscopy of NIR-labeled peptide binding to breast cancer cells; format: cell-based; conditions: 1 μM peptide, 2% BSA, 4 °C, 1 hour
Procedure: (§1) ~10^4 human breast cancer cells were seeded on 1 mm thick cover glass, and grown to ~80% confluence in 12 well plates. The cells were gently washed with cold PBS and blocked with 2% BSA before incubation with peptides. 1 μM of IRDye800CW-labeled peptides mixed with 2% BSA was added to each well and incubated at 4 °C for 1 hour. After incubation for […], the cells were washed with PBS 3X, fixed in ice cold 4% PFA for 10 min, and washed with PBS 1X. The cells were then embedded on microscope slides with 5 μL of ProLong Gold reagent containing DAPI (Invitrogen). SKBR3 cells were cultured in 6-well plates at 30–40% confluence in culture media supplemented with 10% fetal bovine serum without antibiotics. The cells were transfected with siRNA with a final concentration of […] using oligofectamine (Thermo Scientific).
For imaging, we used an inverted confocal microscope (Olympus FV1200) with a 63X water immersion objective and λex = 748 nm to excite IRDye800CW, λex = 405 nm for DAPI, and λex = 488 nm for Alexa Fluor 488. For antibody staining, the cells were pre-fixed with cold methanol for 10 min at −20 °C and blocked with 2% BSA for 30 min at room temperature (RT). […] Fluorescence intensities were measured from 3 randomly positioned boxes with dimensions of 20 × 20 μm^2, and were quantified using custom Matlab (Mathworks) software.

[2] = test system: ErbB2 in BT474 and MDA-MB-231 xenograft tumor and normal breast sections; experiment: Immunofluorescence of human xenograft breast tumor sections; design: species or system mouse; conditions: 0.5 μM peptide, 10 min at RT
Procedure: Representative histology (H&E) for the MDA-MB-231 tumor is shown, Fig. S7I. […] Representative histology (H&E) for normal is shown, Fig. S7M.
(§2) Resected human xenograft breast tumors and normal breast tissues from n = 8 mice were formalin-fixed, paraffin embedded, and cut in 5 μm thick sections. IDC and normal human breast tissues were collected and prepared with the same protocol. The specimens were cut in 5 μm sections, and deparaffinization, rehydration and antigen unmasking was performed, as described previously. Blocking was performed with DAKO protein blocking agent (X0909, DAKO) for 1 hour at RT. Sections were then incubated with 0.5 μM of either peptide in 2% BSA for 10 min at RT. The sections were washed with PBS 3X and mounted with Prolong Gold reagent containing DAPI (Invitrogen).

[3] = test system: ErbB2 in human breast specimens (IDC, DCIS, normal); experiment: Immunofluorescence of human breast specimens ex vivo
Excerpt: We evaluated peptide binding to sections of human breast specimens to assess potential for clinical translation. […] Representative histology (H&E) is shown, Fig. 6D. We also observed strong co-localization of binding (arrow) between KSP*-IR800 peptide (red) and AF488-labeled anti-ErbB2 antibody (green) to ErbB2 + IDC specimens with Pearson’s correlation coefficient of ρ = 0.53, Fig. 6E,F. We quantified the fluorescence intensities, Fig. 6G. […] Representative histology (H&E) for DCIS is shown, Fig. 6M. […] Representative histology (H&E) for normal is shown, Fig. 6O.
as §2
Formalin-fixed, paraffin-embedded (FFPE) human breast specimens known to express ErbB2 (n = 4 patients) were obtained from the archived tissue bank in the Department of Pathology at the University of Michigan. 5 μm sections were cut and rehydrated to water. Slides were counterstained with Harris Hematoxylin for 5 sec, dehydrated, and cover-slipped. Heat induced epitope retrieval was performed with FLEX TRS High pH Retrieval buffer (DAKO, 9.01) for 20 min. After peroxidase blocking, the antibody Her2/neu rabbit monoclonal (Cell Marque Corporation, SP3 cat#237R-16) was applied at a dilution of 1:150 at RT for 20 min. The EnVision + detection System HRP anti-rabbit (DAKO, #K4002) was used for detection. DAB chromogen was then applied for 10 min. Sections of human breast specimens were mounted onto glass slides (Superfrost Plus, Fischer Scientific). The tissues were deparaffinized, and antigen retrieval was performed, as discussed above. Histology and IHC were performed to evaluate for ErbB2 expression.
Human breast specimens were embedded in paraffin and antigen unmasking was performed as described above. Blocking was performed with 2% BSA solution in PBS at RT for 1 hour. We used 1:250 dilution of monoclonal mouse anti-ErbB2 antibody (clone 111.6, Thermo Scientific). The sections were incubated at RT for 1 hour with primary antibody and then washed in PBS for 5 min. […] Fluorescence intensities were measured from 3 randomly positioned boxes with dimensions of 20 × 20 μm^2.

[4] = Absorption and fluorescence emission spectra; format: physicochemical
Excerpt: We synthesized the ErbB2 and control peptides using standard Fmoc mediated solid-phase chemical synthesis and labeled with either Cy5.5 or IRDye800 fluorophores via standard bio-conjugation techniques. We used IRDye800CW-malemide (LiCor Biosciences) to label the peptide via a GGGSC linker at the C-terminus. The coupling yield was about 20–30% in aqueous solution without use of catalysis. IRDye800CW was used because of its high quantum yield, photostability, and lack of toxicity. The peptide absorption spectrum was measured using a UV-vis spectrophotometer in the 300–900 nm range (NanoDrop 2000, Thermo Scientific). Fluorescence emission from a 5 μM peptide solution diluted in PBS was collected with a fiber coupled spectrophotometer (Ocean Optics) using a diode pumped solid state laser (Technica Laser Inc) with excitation at λex = 780 nm. The spectra were plotted using Origin 9.5 software (OriginLab Corp).

[5] = test system: ErbB2 on SKBR3 human breast cancer cells; experiment: siRNA knockdown of ErbB2 in SKBR3 cells, binding of labeled ligand; format: cell-based
Procedure: We performed siRNA knockdown of ErbB2 in SKBR3 human breast cancer cells to validate specific binding of KSP* to ErbB2.
as §1
We examined ErbB2 knockdown in SKBR3 cells using ON-TARGETplus human siRNA (#L-003126–00–0005), ON-TARGETplus Non-targeting pool (#D-001810–10–05), and DharmaFECT transfection reagents (Thermo Scientific) per manufacturer instructions. We transfected SKBR3 cells with either siErbB2 (targeting siRNA) or siCL (non-targeting siRNA) for control at a final concentration of […] using oligofectamine (Thermo Scientific).

ErbB2 on SKBR3 cells = experiment: Binding co-localization with anti-ErbB2 antibody on cells; format: cell-based, human; conditions: KSP*-Cy5.5 and anti-ErbB2-AF488, average of 3 independent measurements
Procedure: […] The cells were washed and fixed with 4% PFA for 5 min, and then incubated with primary anti-ErbB2 and secondary AF488-labeled antibody.
For imaging, we used an inverted confocal microscope (Olympus FV1200) with a 63X water immersion objective and λex = 748 nm to excite IRDye800CW, λex = 405 nm for DAPI, and λex = 488 nm for Alexa Fluor 488. For antibody staining, the cells were pre-fixed with cold methanol for 10 min at −20 °C and blocked with 2% BSA for 30 min at room temperature (RT). Cells were incubated with a 1:450 dilution of anti-ErbB2 antibody (clone 111.6, Thermo Scientific) overnight at 4 °C. The cells were then washed with PBS 3X, and secondary goat […] antibody labeled with Alexa-Fluor 488 (AF488) was added to the cells for 1 hour at RT. The cells were washed further with PBS and mounted onto cover glass. Fluorescence intensities were measured from 3 randomly positioned boxes with dimensions of 20 × 20 μm^2, and were quantified using custom Matlab (Mathworks) software.

[6] = target: ErbB2 extracellular domain 3; conditions: cited from earlier work

PPSNFKR [PPS*, unlabeled scrambled control peptide]
effect of unlabeled peptide on binding of KSP*-IR800 (ErbB2): significantly less effective competition | effect of unlabeled peptide on mean fluorescence intensity of KSP*-Cy5.5 (ErbB2): significantly less affected

PPSNFKR [PPS*-IR800]
fold greater signal, BT474 versus MDA-MB-231 cells ([1]; average of 3 independent measurements, ANOVA on log-transformed data, difference of differences significant): 1.04 fold | signal to cell surface ([1]; either cell (BT474 and MDA-MB-231), qualitative): Minimal signal | binding / signal on immunofluorescence ([2]; BT474 xenograft tumor sections, 2% BSA, qualitative): minimal signal | fluorescence intensity on immunofluorescence ([2]; MDA-MB-231 tumor sections, qualitative): minimal | fluorescence intensity on immunofluorescence ([2]; normal breast sections, qualitative): minimal | fold increase, BT474 versus MDA-MB-231 tumors ([2]; xenograft tumor sections, ANOVA with terms for 6 groups on log-transformed data): 1.8 fold | binding / signal on immunofluorescence ([3]; ductal carcinoma in situ (DCIS), 0.5 μM peptide, 10 min at RT, qualitative): minimal signal | binding / signal on immunofluorescence ([3]; invasive ductal carcinoma (IDC), 0.5 μM peptide, 2% BSA, 10 min at RT, qualitative): minimal signal | fold greater signal, IDC (ErbB2+) versus normal (ErbB2−) breast ([3]; n = 4 patients, ANOVA on log-transformed data, difference of differences not significant, P = 0.09): 1.30 fold | staining on immunofluorescence ([3]; normal human breast tissue, 0.5 μM peptide, 10 min at RT, qualitative): minimal staining | peak emission λem ([4]; 5 μM peptide solution diluted in PBS, excitation 780 nm): 800 nm | maximum absorbance λex ([4]; UV-vis spectrophotometer, 300–900 nm range): 780 nm

KSPNPRF [KSP*]
effect of unlabeled peptide on binding of KSP*-IR800 (ErbB2): decreases significantly in a concentration dependent manner | effect of unlabeled peptide on mean fluorescence intensity of KSP*-Cy5.5 (ErbB2): decreases significantly in a concentration dependent manner

KSPNPRF [KSP*-Cy5.5]
fold greater signal, siCL control versus siErbB2 knockdown cells ([5]; SKBR3, average of 3 independent measurements, ANOVA, difference of differences significant): 4.42 fold | reduction in fluorescence intensities in ErbB2 knockdown cells ([5]; SKBR3 siErbB2 versus siCL, qualitative): significant reduction | binding to cell surface ([5]; control SKBR3 cells (siCL), qualitative): strong binding | Pearson's correlation coefficient ρ for co-localization with anti-ErbB2-AF488 (ErbB2 on SKBR3 cells): 0.70 | Kd ([6]; peptide labeled with Cy5.5, read-out: affinity): 20 nM | binding kinetics (rate) ([6]; peptide labeled with Cy5.5): 0.14 min⁻¹
